The test system of test [1] is HS-PSS. Description: drug sensitivity score (DSS, CellTiter-Glo viability, 72 h) (DSS (dimensionless)); higher = more sensitive; extreme values may be limits of the assay. A digest of the protocol: (§1)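 After seeding 750–1000 cells per well of MPNST cell lines or primary human Schwann cells into 384-well plates preprinted with each compound at five concentrations in 10-fold steps, plates were kept 72 h at 37 °C, 5% CO2. Viability was read as CellTiter-Glo ATP luminescence relative to vehicle and positive-control wells, with duplicates averaged where present. The data were fitted with four-parameter logistic models. Drug sensitivity score and relative IC50, censored at the top concentration, derive from the fits, and percent inhibition refers to the top concentration.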
Background: ATP-based viability assays read luminescence as a measure of living cells.

For test [2], the system named is HS-Sch-2. The test is described as above. A digest of the protocol:
as §1

The subject of test [3] is YST-1. The description is as above. A digest of the protocol: as §1
In test [4] the test system is HS-PSS. Briefly: drug sensitivity score (DSS, CellTox-Green cytotoxicity, 72 h) (DSS (dimensionless)); higher = more cytotoxic; extreme values may be limits of the assay. A digest of the protocol: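 For 72 h at 37 °C, MPNST cell lines and primary human Schwann cells were exposed in 384-well plates to five 10-fold compound dilutions. CellTox-Green, added before seeding at a final 1:1000 dilution, gave fluorescence from DNA released by disrupted cells. Signals were scaled to vehicle and positive-control wells, cultures failing plate quality control were left out, and four-parameter logistic fits were applied. Relative IC50 and drug sensitivity score were derived from the fits, with IC50 censored at the top concentration.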

Test [5] relates to HS-PSS. Description: % inhibition of CellTiter-Glo viability at highest tested concentration (72 h), relative to DMSO and benzethonium chloride controls; higher = more inhibition. In outline:
as §1

In test [6] the test system is HS-Sch-2. The test is described as above. A digest of the protocol:
as §1

Test [7] relates to YST-1. Described as above. A digest of the protocol:
as §1

On to `Cc1c(CN2CCN(C(=O)[C@H](C)O)CC2)sc2c(N3CCOCC3)nc(-c3cnc(N)nc3)nc12` [Apitolisib] (max concentration tested 10000 nM), for which the drug sensitivity score is 8.39 in test [1], 9.07 in test [2], 18.3 in test [3] and 0 in test [4]. Also, the “% inhibition” value was found to be 64.5% in test [5], 71.5% in test [6] and 86.9% in test [7].

Take `Cc1cc(-c2nc(-c3ccc(OC(F)(F)F)cc3)no2)nn1Cc1ccnc(N2CCN(C3CC3)CC2)c1` [BAY 87-2243] (max concentration tested 1000 nM): the drug sensitivity score in test [1] was 31.7; in test [2] it was 26.4; in test [3] it was 2.18; in test [4], 0. Further, the “% inhibition” value in test [5] was 74.5%; in test [6] it was 65.9%; in test [7] it was 15.5%.

Turning to `Nc1nc(Nc2ccc3c(c2)CC[C@@H](N2CCCC2)CC3)nn1-c1cc2c(nn1)-c1ccccc1CCC2` [BGB324] (max concentration tested 10000 nM), the drug sensitivity score was 2.95 in test [1], 14.4 in test [2], 7.59 in test [3] and 0 in test [4]. Besides, the “% inhibition” value in test [5] came out at 23.7%; in test [6], 99.5%; in test [7] it was 99.3%.

`O=C(Nc1cccc(Nc2ncc(Br)c(NCCc3cnc[nH]3)n2)c1)N1CCCC1` [BX-912] (max concentration tested 10000 nM): the drug sensitivity score is 3.51 in test [1], 4.94 in test [2], 8.47 in test [3] and 0 in test [4]. Moreover, the “% inhibition” value in test [5] is 44.8%; in test [6], 78.4%; in test [7], 67%.

On to `Cc1ccc(NC(=O)c2ccc(CN3CC[C@H](N(C)C)C3)c(C(F)(F)F)c2)cc1Nc1nccc(-c2cncnc2)n1` [Bafetinib] (max concentration tested 1000 nM), for which the drug sensitivity score in test [1] was found to be 0; in test [2], 0.33; in test [3], 1.49; in test [4], 0. Also, the “% inhibition” value is -10.6% in test [5], 16.8% in test [6] and 28.5% in test [7].

For `CCS(=O)(=O)N1CC(CC#N)(n2cc(-c3ncnc4[nH]ccc34)cn2)C1` [Baricitinib] (max concentration tested 2500 nM), the drug sensitivity score in test [1], in test [2], in test [3] and in test [4] was 0 each time. The results for the “% inhibition” value in test [5], in test [6] and in test [7] were 1.87%, 4.94% and -0.02%, respectively.

On to `N#CC(c1ccnc(OCc2ccc(CN3CCOCC3)cc2)n1)c1nc2ccccc2s1` (stereo not drawn) [Bentamapimod] (max concentration tested 10000 nM), for which the drug sensitivity score in test [1] is 6.75; in test [2], 3.69; in test [3] it was 2.11; in test [4], 1.1. The “% inhibition” value in test [5] was 75.6%; in test [6] it was 58.6%; in test [7], 26.9%.

Regarding `Cn1cnc2c(F)c(Nc3ccc(Br)cc3F)c(C(=O)NOCCO)cc21` [Binimetinib] (max concentration tested 1000 nM), the drug sensitivity score came out at 0 in test [1], 0.81 in test [2], 0 in test [3] and 0 in test [4]. Also, the “% inhibition” value in test [5] turned out to be 7.79%; in test [6], 21.1%; in test [7] it was 6.26%.

`CC[C@H](NC(=O)[C@H](C)NC)C(=O)N1C[C@@H](O)C[C@H]1Cc1c(-c2[nH]c3cc(F)ccc3c2C[C@@H]2C[C@H](O)CN2C(=O)[C@H](CC)NC(=O)[C@H](C)NC)[nH]c2cc(F)ccc12` [Birinapant] (max concentration tested 1000 nM): the drug sensitivity score in test [1], in test [2], in test [3] and in test [4] was 0 in each case. Besides, the “% inhibition” value was 10.7% in test [5], 6.12% in test [6] and 2.35% in test [7].

For `CN(C)c1cc2c(cc1Sc1nc3c(N)nccc3n1CCNCC(C)(C)C)OCO2` [CUDC-305] (max concentration tested 10000 nM), the drug sensitivity score turned out to be 13.1 in test [1], 19.6 in test [2], 12.6 in test [3] and 4.43 in test [4]. Besides, the “% inhibition” value turned out to be 84.7% in test [5], 101% in test [6] and 81.7% in test [7].

In the case of `COc1ccc(-c2nc(N3CCOCC3)c3sc(CN(C)c4ncc(C(=O)NO)cn4)cc3n2)cn1` [CUDC-907] (max concentration tested 10000 nM), the drug sensitivity score was determined as 31.6 in test [1], 31.9 in test [2], 40.4 in test [3] and 19.2 in test [4]. The “% inhibition” value turned out to be 98.6% in test [5], 99.5% in test [6] and 100% in test [7].

For the molecule `Cc1nc(N)sc1-c1ccnc(Nc2ccc(N3CCOCC3)cc2)n1` [CYC-116] (max concentration tested 10000 nM), the drug sensitivity score in test [1] is 6.5; in test [2] it was 4.97; in test [3], 8.36; in test [4], 0. Moreover, the results for the “% inhibition” value in test [5], in test [6] and in test [7] were 65.9%, 54.2% and 58.8%, respectively.

On to `CO[C@H]1C(=O)[C@]2(C)[C@@H](OC)C[C@H]3OC[C@@]3(OC(C)=O)[C@H]2[C@H](OC(=O)c2ccccc2)[C@]2(O)C[C@H](OC(=O)[C@H](O)[C@@H](NC(=O)OC(C)(C)C)c3ccccc3)C(C)=C1C2(C)C` [Cabazitaxel] (max concentration tested 1000 nM), for which the drug sensitivity score turned out to be 1.5 in test [1], 33.6 in test [2], 30.7 in test [3] and 0.1 in test [4]. The “% inhibition” value is 41.5% in test [5], 93.5% in test [6] and 74% in test [7].

For `CC[C@@]1(O)C(=O)OCc2c1cc1n(c2=O)Cc2cc3ccccc3nc2-1` [Camptothecin] (max concentration tested 5000 nM), the drug sensitivity score in test [1] amounted to 14.9; in test [2], 22.2; in test [3], 23.6; in test [4] it was 10.2. In addition, the “% inhibition” value in test [5] amounted to 93.1%; in test [6], 99.9%; in test [7] it was 99.6%.

What is called % inhibition is the relative decrease from the control value, in per cent.

The values are drawn from the supplement of paper PMC5579334.
